From ChEMBL document CHEMBL3045591, “Imidazole as an anti-epileptic: an overview” (Med Chem Res, 2012) come the findings set out here.

Data set [1] is filed under the species Mus musculus. As to the kind of experiment: Anticonvulsant activity in Mus musculus (mouse) assessed as protection against metrazole-induced seizures. Format: functional.
A short description of data set [2]: Toxicity in po dosed Rattus norvegicus albino (rat). In kind it is organism-based. The note with it: in vivo.
In data set [3] the test system is Mus musculus. As to the kind of experiment: Anticonvulsant activity in Mus musculus (mouse) assessed protection against subcutaneous pentylenetetrazole-induced seizures. In kind it is functional.
The species entered for data set [4] is Mus musculus. As to the kind of experiment: Anticonvulsant activity in Mus musculus (mouse) assessed as protection against maximal electroshock-induced seizures. In kind it is functional. (Protection in the maximal electroshock model is a classic sign of anticonvulsant action.)
Data set [5] is filed under the species Mus musculus. As to the kind of experiment: Anticonvulsant activity in acute seizure Mus musculus (mouse) model assessed as protection against maximal electroshock-induced seizures. Format: functional.
In data set [6] the test system is Mus musculus. The data set can be described thus: Anticonvulsant activity in Mus musculus (mouse) assessed as protection against maximal electroshock-induced seizures compound co-administered with losartan 50 mg/kg, ip. In kind it is functional. The note with it: route intraperitoneal.
The species named for data set [7] is Mus musculus. As to the kind of experiment: Anticonvulsant activity against Mus musculus DBA/2 (mouse) assessed as protection against sound-induced seizure. Format: functional. The note with it: read-out: MED.

As for `COC(=O)c1cnc(C)n1C(C)c1ccccc1.O=[N+]([O-])O` (stereo not given), in the data set listed under Mus musculus [1], the ED50 is 68 mg/kg.

`COc1cccc(-c2nc(-c3ccccc3)c(-c3ccccc3)[nH]2)c1` had an MTD in data set [2] not above 5000 mg/kg.

For `Clc1ccc(-c2nc(Cn3ccnc3)cs2)cc1`, the Activity in the data set on Mus musculus [3] and in the data set filed under Mus musculus [4] was 33% throughout.

For `CCCOC(=O)NC1=NCC(c2ccccc2F)N1C` (stereo not given), in the data set listed under Mus musculus [5], the ED50 stood at 23 mg/kg.

As for `Cc1ncc(C(=O)Oc2ccccc2)n1C(C)c1ccccc1.O=[N+]([O-])O` (stereo not given), the ED50 in the data set listed under Mus musculus [1] worked out at 68 mg/kg.

On to `CCCC(CCC)C(=O)O` [VALPROIC ACID], for which the ED50 in the data set with Mus musculus [6] was found to be 195 mg/kg; in the data set filed under Mus musculus [4] (Mus musculus), 250 mg/kg.

In the case of `O=[N+]([O-])c1cc2nc(O)c(O)nc2nc1-n1ccnc1`, in the data set filed under Mus musculus [7], the minimal effective dose worked out at 10 mg/kg.

Consider `CC(C)OC(=O)NC1=NCC(c2ccccc2F)N1C` (stereo not given), for which the ED50 in the data set listed under Mus musculus [5] was determined as 23 mg/kg.

By ED50 is commonly meant the dose at which the effect has come halfway, by size or by number of responders.
